Among the data in ChEMBL document CHEMBL1201862, “PubChem BioAssay data set” (2004) are EC50, IC50 and AC50 values, retold here.

Assay [1] addresses Transthyretin (Homo sapiens, UniProt P02766). Nature of the assay: Luminescence-based cell-based high throughput dose response assay to identify activators of Transthyretin (TTR) transcription. Type of assay: functional.
The target in assay [2] is 1-phosphatidylinositol 4,5-bisphosphate phosphodiesterase gamma-1 (Homo sapiens, UniProt P19174). The experiment in a line: Counterscreen for inhibitors of phospholipase C isozymes (PLC-B3): Fluorescence-based biochemical high throughput dose response assay to identify inhibitors of phospholipase C isozymes (PLC-gamma1). For orientation: The purpose of a counterscreen is to sort out artefacts and off-target activity.
Chain of 1-phosphatidylinositol 4,5-bisphosphate phosphodiesterase gamma-1 (P19174 whole entry): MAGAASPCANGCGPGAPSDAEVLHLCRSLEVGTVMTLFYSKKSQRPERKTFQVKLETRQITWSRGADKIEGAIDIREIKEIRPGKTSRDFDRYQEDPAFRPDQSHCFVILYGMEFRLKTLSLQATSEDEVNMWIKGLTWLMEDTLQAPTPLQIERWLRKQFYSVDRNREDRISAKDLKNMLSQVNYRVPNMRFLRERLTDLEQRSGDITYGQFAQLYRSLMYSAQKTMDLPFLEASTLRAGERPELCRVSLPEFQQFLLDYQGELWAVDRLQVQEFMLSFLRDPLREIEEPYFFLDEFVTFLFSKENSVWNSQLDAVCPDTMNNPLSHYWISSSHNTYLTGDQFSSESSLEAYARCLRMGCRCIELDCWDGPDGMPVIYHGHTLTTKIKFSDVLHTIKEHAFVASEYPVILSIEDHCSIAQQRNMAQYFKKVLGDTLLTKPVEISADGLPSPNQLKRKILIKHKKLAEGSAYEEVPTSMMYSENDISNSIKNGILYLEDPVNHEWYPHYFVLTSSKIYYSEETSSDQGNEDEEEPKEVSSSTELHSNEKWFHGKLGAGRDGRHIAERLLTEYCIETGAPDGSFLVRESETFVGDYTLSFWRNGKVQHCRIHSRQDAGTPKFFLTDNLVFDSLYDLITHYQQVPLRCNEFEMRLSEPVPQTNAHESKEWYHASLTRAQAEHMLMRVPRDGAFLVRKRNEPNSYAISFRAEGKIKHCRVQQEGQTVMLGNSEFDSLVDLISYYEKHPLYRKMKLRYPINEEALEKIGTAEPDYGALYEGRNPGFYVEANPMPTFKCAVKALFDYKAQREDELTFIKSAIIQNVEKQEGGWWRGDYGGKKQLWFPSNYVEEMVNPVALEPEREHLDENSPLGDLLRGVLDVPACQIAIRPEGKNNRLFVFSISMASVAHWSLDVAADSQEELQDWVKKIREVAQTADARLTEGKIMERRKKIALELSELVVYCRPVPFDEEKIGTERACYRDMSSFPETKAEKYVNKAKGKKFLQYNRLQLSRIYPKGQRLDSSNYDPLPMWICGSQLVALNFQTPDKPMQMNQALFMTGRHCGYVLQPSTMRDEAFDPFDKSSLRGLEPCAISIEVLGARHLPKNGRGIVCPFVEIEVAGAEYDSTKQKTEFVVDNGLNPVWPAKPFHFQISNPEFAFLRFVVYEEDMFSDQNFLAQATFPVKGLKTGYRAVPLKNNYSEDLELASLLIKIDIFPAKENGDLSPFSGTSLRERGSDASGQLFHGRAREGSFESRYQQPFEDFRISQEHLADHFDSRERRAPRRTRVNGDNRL

The target of assay [3] is 1-phosphatidylinositol 4,5-bisphosphate phosphodiesterase beta-3 (Homo sapiens, UniProt Q01970). The experiment in a line: Fluorescence-based biochemical high throughput dose response assay to identify inhibitors of phospholipase C isozymes (PLC-B3).
Chain of 1-phosphatidylinositol 4,5-bisphosphate phosphodiesterase beta-3 (Q01970 whole entry): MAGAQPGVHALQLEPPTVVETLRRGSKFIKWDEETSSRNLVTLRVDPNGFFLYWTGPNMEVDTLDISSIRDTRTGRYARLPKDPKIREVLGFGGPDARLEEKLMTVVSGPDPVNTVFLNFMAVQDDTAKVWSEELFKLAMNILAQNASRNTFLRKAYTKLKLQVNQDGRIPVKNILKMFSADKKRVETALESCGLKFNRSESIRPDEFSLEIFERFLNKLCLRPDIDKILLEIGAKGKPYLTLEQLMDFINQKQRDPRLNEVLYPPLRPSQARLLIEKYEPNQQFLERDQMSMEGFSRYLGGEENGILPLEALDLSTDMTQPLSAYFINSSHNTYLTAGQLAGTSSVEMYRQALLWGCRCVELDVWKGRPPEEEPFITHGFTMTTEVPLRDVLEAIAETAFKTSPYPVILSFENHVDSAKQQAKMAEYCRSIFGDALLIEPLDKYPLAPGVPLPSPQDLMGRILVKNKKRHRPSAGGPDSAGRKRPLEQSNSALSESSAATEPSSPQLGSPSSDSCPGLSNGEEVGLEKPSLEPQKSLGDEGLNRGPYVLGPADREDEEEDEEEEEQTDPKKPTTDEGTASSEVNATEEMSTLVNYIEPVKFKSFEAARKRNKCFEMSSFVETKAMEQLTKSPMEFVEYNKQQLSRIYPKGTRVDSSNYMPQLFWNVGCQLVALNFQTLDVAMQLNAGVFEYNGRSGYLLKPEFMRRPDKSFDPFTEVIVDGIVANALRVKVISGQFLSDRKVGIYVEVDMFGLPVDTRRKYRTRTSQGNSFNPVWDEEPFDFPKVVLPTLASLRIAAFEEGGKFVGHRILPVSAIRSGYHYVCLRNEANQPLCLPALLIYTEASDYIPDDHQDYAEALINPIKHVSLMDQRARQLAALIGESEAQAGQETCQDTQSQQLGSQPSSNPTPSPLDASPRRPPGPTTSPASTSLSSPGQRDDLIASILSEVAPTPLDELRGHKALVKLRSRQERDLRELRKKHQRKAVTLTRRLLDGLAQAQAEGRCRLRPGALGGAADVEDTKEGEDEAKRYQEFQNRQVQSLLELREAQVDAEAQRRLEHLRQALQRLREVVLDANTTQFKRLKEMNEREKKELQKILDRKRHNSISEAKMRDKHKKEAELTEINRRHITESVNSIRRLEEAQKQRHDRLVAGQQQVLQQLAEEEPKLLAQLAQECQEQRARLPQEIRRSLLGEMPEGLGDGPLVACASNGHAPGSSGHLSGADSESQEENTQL
Assay [4] is described as follows: Luminescence-based cell-based high throughput dose response assay to identify activators of the DAF-12 from the parasite S. stercoralis (ssDAF-12). The class given is functional.
Assay [5] addresses T1, Oxysterols receptor LXR-beta (Homo sapiens, UniProt P55055).
T1 sequence (P55055 whole entry): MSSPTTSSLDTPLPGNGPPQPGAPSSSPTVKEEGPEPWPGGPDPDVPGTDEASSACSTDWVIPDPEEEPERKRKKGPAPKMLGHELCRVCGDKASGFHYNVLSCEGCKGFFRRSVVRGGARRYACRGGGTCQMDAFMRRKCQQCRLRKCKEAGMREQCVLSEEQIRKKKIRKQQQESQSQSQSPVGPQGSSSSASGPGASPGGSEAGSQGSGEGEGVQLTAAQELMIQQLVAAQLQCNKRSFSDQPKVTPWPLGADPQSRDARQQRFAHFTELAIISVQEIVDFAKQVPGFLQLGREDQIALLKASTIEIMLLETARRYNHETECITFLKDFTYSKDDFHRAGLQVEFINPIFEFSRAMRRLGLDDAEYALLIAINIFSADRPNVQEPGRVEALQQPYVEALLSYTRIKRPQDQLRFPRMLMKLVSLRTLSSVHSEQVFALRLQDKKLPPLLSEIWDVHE
The experiment in a line: LXR agonists, Gal4 luciferase reporter, dose response, counter-screen for ssDAF-12 agonist project, cell-based, luminescence, HEK293, S. stercoralis campaign (AID 720737). Type of assay: functional. The note with it: read-out: IC50 (the source's name). For orientation: Reporter assays use an easily measured gene product as a stand-in for the process of interest.

Assay [6] addresses Kallikrein-7 (Homo sapiens, UniProt P49862). Nature of the assay: Fluorescence Intensity-based biochemical primary high throughput dose response assay to identify activators of kallikrein-7 (K7) zymogen.
A short description of assay [7]: HEK293 Cytotoxicity Assay Measured in Cell-Based System Using Plate Reader - 7071-01_Inhibitor_Dose_CherryPick_Activity_Set2. Type of assay: functional.
In assay [8] the test system is HEK293. Nature of the assay: HEK293T cell cytotoxicity, dose response, cytotoxicity control, ATP luminescence, cherry-pick samples (AID 687005).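 Note: cells exposed to compound for 48 hours.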 Type of assay: functional, cell-based. The note with it: Homo sapiens.

The source made the active and inactive calls. Bounds are passed on as bounds.

Chain of Kallikrein-7 (P49862 whole entry): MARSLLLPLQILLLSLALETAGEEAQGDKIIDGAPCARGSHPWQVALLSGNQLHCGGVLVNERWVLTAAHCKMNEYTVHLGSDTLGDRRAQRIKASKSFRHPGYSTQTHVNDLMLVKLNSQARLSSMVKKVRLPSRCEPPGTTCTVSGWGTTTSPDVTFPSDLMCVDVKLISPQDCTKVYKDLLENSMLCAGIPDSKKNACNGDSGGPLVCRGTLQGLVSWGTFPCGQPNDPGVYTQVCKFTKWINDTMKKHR

With `CC(C)CNC(=O)CSc1nnc2ccccn12`, the EC50 in assay [1] is > 167 µM (inactive).

On to `Cc1ccccc1C(=O)NC1CCN(Cc2nnnn2C2CCCC2)CC1`, for which the IC50 in assay [2] and in assay [3] was > 122 µM (inactive) each time.

As for `Cc1ccc2nsnc2c1NC(=O)c1cccnc1Cl`, the IC50 (commonly the point on the concentration scale where inhibition reaches its midpoint) in assay [4] was > 67.5 µM (inactive). Besides, in assay [5], the EC50 was > 67.5 µM (inactive).

In the case of `O=C(Nc1c(-c2ccccc2)nc2ncccn12)c1ccccc1`, the EC50 in assay [6] is > 69.6 µM (inactive).

For the molecule `O=C(CN1CCOCC1)N[C@@H]1CC[C@@H](CCNC(=O)C2CCC2)O[C@@H]1CO`, the half-maximal activity concentration (AC50) in assay [7] and in assay [8] was 14.8 µM (active) throughout.
